According to ChEMBL document CHEMBL3112551, “Synthesis of 2H-1,3-benzoxazin-4(3H)-one derivatives containing indole moiety: their in vitro evaluation against PDE4B” (Bioorg Med Chem Lett, 2014):
Active and inactive are the calls of the source. The rule behind the calls is not given here.

biological target: 3',5'-cyclic-AMP phosphodiesterase 4B (Homo sapiens) (UniProt Q07343); experiment: Inhibition of PDE4B (unknown origin) expressed in HEK293 cells assessed as increase in forskolin-stimulated cAMP level at 30 uM preincubated for 30 mins followed by forskolin-stimulation measured after 4 hrs by luciferase reporter gene assay relative to control; format: functional, cell-based
Sequence (Q07343 whole entry): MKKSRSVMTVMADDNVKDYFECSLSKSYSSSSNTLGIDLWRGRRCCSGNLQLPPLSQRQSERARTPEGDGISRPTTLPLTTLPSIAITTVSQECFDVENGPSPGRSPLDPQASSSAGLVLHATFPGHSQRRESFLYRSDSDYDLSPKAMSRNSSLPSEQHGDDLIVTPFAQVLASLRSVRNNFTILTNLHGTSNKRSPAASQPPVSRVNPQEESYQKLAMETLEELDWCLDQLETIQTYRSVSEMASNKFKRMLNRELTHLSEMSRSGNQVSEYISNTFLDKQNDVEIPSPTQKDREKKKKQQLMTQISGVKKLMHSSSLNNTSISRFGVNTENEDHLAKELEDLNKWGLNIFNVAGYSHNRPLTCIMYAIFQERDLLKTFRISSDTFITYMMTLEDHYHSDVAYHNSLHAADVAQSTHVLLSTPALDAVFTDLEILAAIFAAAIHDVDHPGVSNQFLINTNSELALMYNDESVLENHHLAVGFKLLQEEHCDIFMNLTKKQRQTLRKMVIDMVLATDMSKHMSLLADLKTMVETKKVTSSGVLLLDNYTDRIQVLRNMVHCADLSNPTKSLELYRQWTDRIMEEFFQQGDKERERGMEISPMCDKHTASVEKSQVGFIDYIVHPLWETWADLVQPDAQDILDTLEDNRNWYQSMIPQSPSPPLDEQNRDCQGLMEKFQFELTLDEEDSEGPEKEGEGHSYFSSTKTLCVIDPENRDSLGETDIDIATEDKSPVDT

Structure (SMILES) | inhibition | fold change (FC)
CC(=O)c1ccc2c(c1)cc(COCCN1COc3ccccc3C1=O)n2S(C)(=O)=O | inactive | 
CS(=O)(=O)n1c(COCCN2COc3ccccc3C2=O)cc2cc([N+](=O)[O-])ccc21 |  | > 5
O=C1c2ccccc2OCN1CCOCc1cc2ccccc2o1 | Active | 
CS(=O)(=O)n1c(COCCN2COc3ccccc3C2=O)cc2cc(F)ccc21 | Active | 
CS(=O)(=O)n1c(COCCN2COc3ccccc3C2=O)cc2cc(C#N)ccc21 | Active | 

The remaining lines, values ahead:

inhibition | fold change (FC) | Structure (SMILES)
Active |  | CS(=O)(=O)n1c(COCCN2COc3ccccc3C2=O)cc2cc(Cl)ccc21
 | > 7 | COc1ccc(C2CNC(=O)C2)cc1OC1CCCC1 (centres undefined)
Active |  | CS(=O)(=O)n1c(COCCN2COc3ccccc3C2=O)cc2cc(C(F)(F)F)ccc21

biological target: 3',5'-cyclic-AMP phosphodiesterase 4B (Homo sapiens) (UniProt Q07343); experiment: Inhibition of PDE4B (unknown origin) expressed in HEK293 cells assessed as increase in forskolin-stimulated cAMP level preincubated for 30 mins followed by forskolin-stimulation measured after 4 hrs by luciferase reporter gene assay; format: functional, cell-based

inhibition | Structure (SMILES)
Dose-dependent effect | CS(=O)(=O)n1c(COCCN2COc3ccccc3C2=O)cc2cc([N+](=O)[O-])ccc21
